Measurements from patent US7452997B2 (priority 2004, dated 2008).
Read-outs that look alike come from different tables or passages of the source.

Tests used:
[1] = target: T1, human CB1 receptor (Homo sapiens, UniProt P21554); assay: biochemical; type: binding
T1 construct: expressed in transfected cells; host or cells: SK-N-MC cells, stably transfected with pcDNA3 CB-1 (human); semi-purified membrane pellet
How it was run: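 Membranes from SK-N-MC cells stably expressing human CB1, incubated 90 minutes at 30° C in Tris-HCl buffer with MgCl2, EDTA and fatty acid free BSA, pH 7.5. Bound counts collected by filtration and scintillation counting; IC50 from linear regression over varying compound concentrations.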

[2] = target: human CB2 receptor (Homo sapiens, UniProt P34972); assay: Binding assay, cannabinoid CB2 receptor ([3H]-CP-55,940 displacement); settings: SK-N-MC cell membranes, radioligand CP-55,940 0.2 nM
human CB2 receptor, sequence (P34972 whole entry): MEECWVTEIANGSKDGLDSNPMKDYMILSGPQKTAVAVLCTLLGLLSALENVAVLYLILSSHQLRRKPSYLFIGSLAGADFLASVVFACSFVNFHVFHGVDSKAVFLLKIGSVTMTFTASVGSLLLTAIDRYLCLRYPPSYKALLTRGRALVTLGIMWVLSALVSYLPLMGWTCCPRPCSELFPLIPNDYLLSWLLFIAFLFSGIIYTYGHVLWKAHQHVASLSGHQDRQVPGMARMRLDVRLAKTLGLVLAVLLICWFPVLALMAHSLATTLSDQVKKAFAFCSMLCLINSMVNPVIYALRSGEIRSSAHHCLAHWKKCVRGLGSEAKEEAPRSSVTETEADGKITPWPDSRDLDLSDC
How it was run: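 Membranes from SK-N-MC cells stably expressing human CB2, incubated with test compound and 0.2 nM [3H]-CP-55,940 for 90 min at 30 °C in Tris buffer pH 7.5 with fatty-acid-free BSA. Nonspecific binding defined with 10 uM WIN 55,212; filtration and scintillation counting, IC50 by linear regression.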

[3] = Cannabinoid CB2 Receptor Binding IC50, human CB2 receptor
[4] = human CB1 receptor, SK-N-MC cell membranes, radioligand CP-55,940 0.2 nM, read-out: Cannabinoid CB1 Receptor Binding IC50

T1 sequence (P21554 whole entry): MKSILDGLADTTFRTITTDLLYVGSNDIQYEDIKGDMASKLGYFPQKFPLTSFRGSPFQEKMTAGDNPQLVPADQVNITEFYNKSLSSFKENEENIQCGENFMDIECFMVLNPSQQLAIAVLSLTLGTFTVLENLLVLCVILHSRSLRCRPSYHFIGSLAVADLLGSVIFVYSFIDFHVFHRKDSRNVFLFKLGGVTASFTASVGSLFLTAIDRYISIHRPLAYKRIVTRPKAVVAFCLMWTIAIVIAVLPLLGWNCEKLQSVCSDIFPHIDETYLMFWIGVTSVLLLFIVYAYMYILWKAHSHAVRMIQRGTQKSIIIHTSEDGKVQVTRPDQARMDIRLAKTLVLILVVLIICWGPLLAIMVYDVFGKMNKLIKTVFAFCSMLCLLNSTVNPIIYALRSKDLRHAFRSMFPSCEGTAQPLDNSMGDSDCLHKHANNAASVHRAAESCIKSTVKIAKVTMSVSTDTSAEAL

Compound | IC50 [1] | IC50 [2, 3] | IC50 [1, 4] | IC50 ([2]; human CB2 receptor, read-out: Cannabinoid CB2 Receptor Binding IC50)
O=C(NCc1cccnc1)c1nn(C2CCCCC2)c2c1CCCC2 [compound 173] | 444 nM | 526 nM | – | –
O=C(CNC(=O)c1nn(C2CCCCC2)c2c1CCCC2)c1ccc(Br)cc1 [compound 177] | 10500 nM | 2400 nM | – | –
O=C(Nc1nn(C2CCCCC2)c2c1CCCC2)C12CC3CC(CC(C3)C1)C2 [compound 179] | 7300 nM | 700 nM | – | –
O=C(Nc1nn(C2CCCCC2)c2c1CCCC2)C1CCCCC1 [compound 180] | 700 nM | 1700 nM | – | –
O=C(Nc1nn(C2CCCCC2)c2c1CCCC2)c1cccc2ccccc12 [compound 181] | 300 nM | 1600 nM | – | –
O=C(NC1CCCc2ccccc21)c1nn(C2CCCCC2)c2c1CCCC2 (stereo not drawn) [compound 183] | 50 nM | 6.9 nM | – | –
O=C(NCC(O)C1CCCCC1)c1nn(C2CCCCC2)c2c1CCCC2 (stereo not drawn) [compound 185] | 900 nM | 120 nM | – | –
O=C(NCC(=O)C1CCCCC1)c1nn(C2CCCCC2)c2c1CCCC2 [compound 187] | 3690 nM | 1600 nM | – | –
O=C(NCC1CCCCC1)c1nn(Cc2ccccc2)c2c1CCCC2 [compound 189] | 10 nM | 10 nM | – | –
CCOC(=O)C1CCc2nn(C3CCCCC3)c(C(=O)NC(C)C34CC5CC(CC(C5)C3)C4)c2C1 (stereo not drawn) [compound 190] | 1620 nM | 4500 nM | – | –
CCC1CCCc2c(C(=O)NC3C4(C)CCC(C4)C3(C)C)nn(-c3ccc(F)cc3)c21 (stereo not drawn) [compound 192] | 60 nM | 2 nM | – | –
CC(NC(=O)c1nn(C2CCCCC2)c2c1CCCC2)C1CCCC1 (stereo not drawn) [compound 193] | 120 nM | 5 nM | – | –
C[C@H](NC(=O)c1nn(C2CCCCC2)c2c1CCCC2)c1ccccc1 [compound 196] | 125 nM | 120 nM | – | –
C[C@@H](NC(=O)c1nn(C2CCCCC2)c2c1CCCC2)c1ccccc1 [compound 197] | 980 nM | 800 nM | – | –
C[C@@H](NC(=O)c1nn(Cc2ccccc2)c2c1CCCC2)C1CCCCC1 [compound 198] | 100 nM | 5.7 nM | – | –
C[C@@H](NC(=O)c1nn(Cc2ccccc2)c2c1CCCC2)c1ccccc1 [compound 199] | 19 nM | 10 nM | – | –
C[C@H](NC(=O)c1nn(Cc2ccccc2)c2c1CCCC2)c1ccccc1 [compound 200] | 8 nM | 1 nM | – | –
C[C@H](NC(=O)c1nn(Cc2ccccc2)c2c1CCCC2)C1CCCCC1 [compound 201] | 1.7 nM | 2 nM | – | –
CC12CCC(C1)C(C)(C)[C@H]2NC(=O)c1nn(-c2ccc(F)cc2)c2c1CCCC2 (stereo partly drawn) [compound 202] | 115 nM | 4.5 nM | – | –
CCN(C(=O)c1nn(C2CCCCC2)c2c1CCCC2)[C@H](C)C1CCCCC1 [compound 203] | 590 nM | 240 nM | – | –
CC[C@@H](NC(=O)c1nn(C2CCCCC2)c2c1CCCC2)c1ccccc1 [compound 204] | 800 nM | 10 nM | – | –
CC12CCC(C1)C(C)(C)C2NC(=O)Nc1nn(C2CCCCC2)c2c1CCCC2 (stereo not drawn) [compound 205] | 1580 nM | 70 nM | – | –
CCOC(=O)[C@@H]1C2C=CC(C2)[C@@H]1NC(=O)c1nn(Cc2ccccc2)c2c1CCCC2 (stereo partly drawn) [compound 206] | 97 nM | 14.1 nM | – | –
CCOC(=O)[C@H]1CCc2c(c(C(=O)NC3C4CC5CC(C4)CC3C5)nn2Cc2ccccc2)C1 (stereo partly drawn) [compound 210] | 335 nM | 8 nM | – | –
C[C@H](NC(=O)c1nn(C2CCCCC2)c2c1CCCC2)C12CC3CC(CC(C3)C1)C2 [compound 213] | 950 nM | 200 nM | – | –
C[C@@H]1[C@@H](NC(=O)c2nn(C3CCCCC3)c3c2CCCC3)C[C@H]2C[C@@H]1C2(C)C [compound 216] | 2800 nM | 70 nM | – | –
CCOC(=O)C1CCc2nn(C3CCCCC3)c(C(=O)NC3C4CC5CC(C4)CC3C5)c2C1 (stereo not drawn) [compound 221] | 3290 nM | 460 nM | – | –

Compound | IC50 [1] | IC50 [2, 3] | IC50 [1, 4] | IC50 ([2]; human CB2 receptor, read-out: Cannabinoid CB2 Receptor Binding IC50)
CC(NC(=O)c1nn(C2CCCCC2)c2c1CC(C(N)=O)CC2)C12CC3CC(CC(C3)C1)C2 (stereo not drawn) [compound 224] | 1500 nM | 1200 nM | – | –
CCOC(=O)C1CCc2nn(Cc3ccccc3)c(C(=O)NC34CC5CC(CC3C5)C4)c2C1 (stereo not drawn) [compound 227] | 2770 nM | 1150 nM | – | –
CCOC(=O)C1CCc2c(C(=O)NC3C4CC5CC(C4)CC3C5)nn(Cc3ccccc3)c2C1 (stereo not drawn) [compound 230] | 10 nM | 1 nM | – | –
CC(C)(C)OC(=O)C1CCc2c(c(C(=O)NC3C4CC5CC(C4)CC3C5)nn2C2CCCCC2)C1 (stereo not drawn) [compound 233] | 1600 nM | 880 nM | – | –
CCC(NC(=O)c1nn(C2CCCCC2)c2c1CCCC2)C1CCCCC1 (stereo not drawn) [compound 234] | 230 nM | 10 nM | – | –
CN(C)C(=O)C1CCc2c(c(C(=O)NC3C4(C)CCC(C4)C3(C)C)nn2C2CCCCC2)C1 (stereo not drawn) [compound 235] | 3600 nM | 1400 nM | – | –
COc1ccccc1CCNC(=O)c1nn(C2CCCCC2)c2c1CCCC2 [compound 236] | 25400 nM | 940 nM | – | –
COc1ccccc1CCNC(=O)c1nn(Cc2ccccc2)c2c1CCCC2 [compound 237] | 890 nM | 151 nM | – | –
COc1ccccc1CCNC(=O)c1nn(-c2ccccc2)c2c1CCCC2 [compound 238] | – | – | 25100 nM | 3720 nM
CC(c1ccccc1)n1nc(C(=O)NCC2CCCCC2)c2c1CCCC2 (stereo not drawn) [compound 242] | 300 nM | 1600 nM | – | –
CC(c1ccccc1)n1nc(C(=O)NC2C3CC4CC(C3)CC2C4)c2c1CCCC2 (stereo not drawn) [compound 243] | 130 nM | 4 nM | – | –
CC(c1ccccc1)n1nc(C(=O)NC23CC4CC(CC(C4)C2)C3)c2c1CCCC2 (stereo not drawn) [compound 244] | 300 nM | 79 nM | – | –
CC1CCCCC1NC(=O)c1nn(C2CCCCC2)c2c1CCCC2 (stereo not drawn) [compound 245] | 20 nM | 2 nM | – | –
CC(NC(=O)c1nn(C2CCCCC2)c2c1CCCC2)C1CCCCCC1 (stereo not drawn) [compound 246] | 2270 nM | 90 nM | – | –
CC(NC(=O)c1nn(C2CCCCC2)c2c1CCCC2)C1CCC1 (stereo not drawn) [compound 247] | 260 nM | 47 nM | – | –
CC(NC(=O)c1nn(C2CCCCC2)c2c1CCCC2)[C@H]1CC[C@H](C)CC1 (stereo partly drawn) [compound 248] | – | 20 nM | 160 nM | –
CC(c1ccccc1)n1nc(C(=O)NC2C3(C)CCC(C3)C2(C)C)c2c1CCCC2 (stereo not drawn) [compound 250] | 70 nM | 5.6 nM | – | –
C[C@H]1C(NC(=O)c2nn(C3CCCCC3)c3c2CCCC3)C[C@@H]2C[C@H]1C2(C)C (stereo partly drawn) [compound 252] | 40 nM | 48 nM | – | –
CC12CCC(C1)C(C)(C)C2NC(=O)c1nn(Cc2ccccc2)c2c1CCCC2c1ccccc1 (stereo not drawn) [compound 265] | 96 nM | 41 nM | – | –
CC(NC(=O)c1nn(Cc2ccccc2)c2c1CCCC2c1ccccc1)C1CCCCC1 (stereo not drawn) [compound 267] | 150 nM | 270 nM | – | –
CCOC(=O)[C@@H]1CCCC[C@H]1NC(=O)c1nn(C2CCCCC2)c2c1CCCC2 [compound 269] | 191 nM | 38.6 nM | – | –
CCOC(=O)[C@@H]1CCCC[C@@H]1NC(=O)c1c2c(nn1Cc1ccccc1)CCCC2 [compound 270] | 3100 nM | 1800 nM | – | –
CCOC(=O)[C@H]1CCCC[C@@H]1NC(=O)c1c2c(nn1Cc1ccccc1)CCCC2 [compound 271] | 6200 nM | 2600 nM | – | –
CCOC(=O)[C@@H]1CCCC[C@H]1NC(=O)c1nn(Cc2ccccc2)c2c1CCCC2 [compound 272] | 86 nM | 70 nM | – | –
CCOC(=O)[C@@H]1C2CCC(C2)[C@@H]1NC(=O)c1c2c(nn1Cc1ccccc1)CCCC2 (stereo partly drawn) [compound 273] | 1590 nM | 414 nM | – | –
CCOC(=O)[C@@H]1C2CCC(C2)[C@@H]1NC(=O)c1nn(Cc2ccccc2)c2c1CCCC2 (stereo partly drawn) [compound 274] | 18.7 nM | 1.6 nM | – | –
CCOC(=O)[C@H]1C2C=CC(C2)[C@H]1NC(=O)c1c2c(nn1Cc1ccccc1)CCCC2 (stereo partly drawn) [compound 275] | 323 nM | 1300 nM | – | –
